Experimental data from ChEMBL document CHEMBL4229547, “Design, synthesis and biological mechanisms research on 1,2,3-triazole derivatives of Jiyuan Oridonin A” (Bioorg Med Chem, 2018).
Calls of active or inactive are those of the source. The rule behind the calls is not given here.

Legend:
MGC-803 [1] = test: Induction of apoptosis in human MGC803 cells assessed as late apoptotic cells at 1.5 ug/ml by annexin V-FITC/propidium iodide staining-based flow cytometric method (reference value: 0.1%); assay type: functional
MGC-803 [2] = test: Induction of apoptosis in human MGC803 cells assessed as downregulation of survivin levels at 1.5 to 6 ug/ml after 48 hrs by Western blot method; assay type: functional, cell-based
MGC-803 [3] = test: Cell cycle arrest in human MGC803 cells assessed as accumulation at S phase at 3 ug/ml after 48 hrs by propidium iodide staining-based flow cytometric method (reference value: 32.5 +/- 2.25%); assay type: functional
MGC-803 [4] = test: Induction of apoptosis in human MGC803 cells assessed as upregulation of p21 levels at 1.5 to 6 ug/ml after 48 hrs by Western blot method; assay type: functional, cell-based
MGC-803 [5] = test: Cell cycle arrest in human MGC803 cells assessed as accumulation at G2/M phase at 3 ug/ml after 48 hrs by propidium iodide staining-based flow cytometric method (reference value: 17.2 +/- 1.35%); assay type: functional
MGC-803 [6] = test: Induction of apoptosis in human MGC803 cells assessed as increase in cell debris after 24 hrs by inverted microscopic method; assay type: functional, cell-based
MGC-803 [7] = test: Induction of apoptosis in human MGC803 cells assessed as decrease in cell number after 24 hrs by inverted microscopic method; assay type: functional, cell-based
MGC-803 [8] = test: Induction of apoptosis in human MGC803 cells assessed as early apoptotic cells at 1.5 ug/ml by annexin V-FITC/propidium iodide staining-based flow cytometric method (reference value: 1.3%); assay type: functional
EC9706 = test: Antiproliferative activity against human EC9706 cells after 48 hrs by MTT assay; assay type: functional, cell-based; settings: EC9706, 48 h
MGC-803 [9] = test: Induction of apoptosis in human MGC803 cells assessed as necrotic cells at 3 ug/ml by annexin V-FITC/propidium iodide staining-based flow cytometric method (reference value: 1%); assay type: functional
MGC-803 [10] = test: Cell cycle arrest in human MGC803 cells assessed as accumulation at G2/M phase at 1.5 ug/ml after 48 hrs by propidium iodide staining-based flow cytometric method (reference value: 17.2 +/- 1.35%); assay type: functional
MGC-803 [11] = test: Induction of apoptosis in human MGC803 cells assessed as viable cells at 1.5 ug/ml by annexin V-FITC/propidium iodide staining-based flow cytometric method (reference value: 97.6%); assay type: functional; settings: read-out: Activity
MGC-803 [12] = test: Induction of apoptosis in human MGC803 cells assessed as late apoptotic cells at 1.5 ug/ml in presence of N-acetyl cysteine by annexin V-FITC/propidium iodide staining-based flow cytometric method (reference value: 0.1%); assay type: functional
MGC-803 [13] = test: Induction of apoptosis in human MGC803 cells assessed as upregulation of cytochrome c levels in cytoplasm at 1.5 to 6 ug/ml after 48 hrs by Western blot method; assay type: functional, cell-based
MGC-803 [14] = test: Induction of apoptosis in human MGC803 cells assessed as decrease in ratio of Bcl-2/Bax at 1.5 to 6 ug/ml after 48 hrs by Western blot method; assay type: functional, cell-based
MGC-803 [15] = test: Cell cycle arrest in human MGC803 cells assessed as accumulation at G0/G1 phase at 1.5 ug/ml after 48 hrs in presence of N-acetyl cysteine by propidium iodide staining-based flow cytometric method (reference value: 52.5 +/- 3.71%); assay type: functional
SMMC-7721 = test: Antiproliferative activity against human SMMC7721 cells after 48 hrs by MTT assay; assay type: functional, cell-based; settings: SMMC-7721, 48 h
MGC-803 [16] = test: Antiproliferative activity against human MGC803 cells at 8 to 16 ug/ml after 48 hrs in presence of N-acetyl cysteine by MTT assay; assay type: functional, cell-based
MGC-803 [17] = test: Antiproliferative activity against human MGC803 cells at 16 to 32 ug/ml after 48 hrs by MTT assay relative to control; assay type: functional
MGC-803 [18] = test: Cell cycle arrest in human MGC803 cells assessed as accumulation at G0/G1 phase at 3 ug/ml after 48 hrs by propidium iodide staining-based flow cytometric method (reference value: 52.5 +/- 3.71%); assay type: functional
MGC-803 [19] = test: Induction of apoptosis in human MGC803 cells assessed as early apoptotic cells at 1.5 ug/ml in presence of N-acetyl cysteine by annexin V-FITC/propidium iodide staining-based flow cytometric method (reference value: 1.3%); assay type: functional
MGC-803 [20] = test: Induction of reactive oxygen species formation in human MGC803 cells at 3 ug/ml after 5 hrs by DCFH-DA staining-based flow cytometry (reference value: 7.1%); assay type: functional
PC-3 = test: Antiproliferative activity against human PC3 cells after 48 hrs by MTT assay; assay type: functional, cell-based; settings: PC-3, 48 h
MGC-803 [21] = test: Cell cycle arrest in human MGC803 cells assessed as accumulation at G0/G1 phase at 1.5 ug/ml after 48 hrs by propidium iodide staining-based flow cytometric method (reference value: 52.5 +/- 3.71%); assay type: functional
MGC-803 [22] = test: Cell cycle arrest in human MGC803 cells assessed as accumulation at G2/M phase at 1.5 ug/ml after 48 hrs in presence of N-acetyl cysteine by propidium iodide staining-based flow cytometric method (reference value: 17.2 +/- 1.35%); assay type: functional
GES1 = test: Antiproliferative activity against human GES-1 cells after 48 hrs by MTT assay; assay type: cell-based; settings: GES1, 48 h
MGC-803 [23] = test: Cell cycle arrest in human MGC803 cells assessed as accumulation at G2/M phase after 48 hrs by propidium iodide staining-based flow cytometric method; assay type: functional
MGC-803 [24] = test: Induction of apoptosis in human MGC803 cells assessed as early apoptotic cells at 3 ug/ml in presence of N-acetyl cysteine by annexin V-FITC/propidium iodide staining-based flow cytometric method (reference value: 1.3%); assay type: functional
MGC-803 [25] = test: Induction of apoptosis in human MGC803 cells assessed as increase in apoptotic bodies formation at 1.5 to 6 ug/ml after 24 hrs by Hoechst 33258 staining-based fluorescence microscopic method; assay type: functional, cell-based
MGC-803 [26] = test: Cell cycle arrest in human MGC803 cells assessed as accumulation at G0/G1 phase at 3 ug/ml after 48 hrs in presence of N-acetyl cysteine by propidium iodide staining-based flow cytometric method (reference value: 52.5 +/- 3.71%); assay type: functional
MGC-803 [27] = test: Disruption of mitochondrial membrane potential in human MGC803 cells at 1.5 to 3 ug/ml after 24 hrs in presence of N-acetyl cysteine by JC1 staining-based fluorescence microscopic method; assay type: functional, cell-based
MCF7 = test: Antiproliferative activity against human MCF7 cells after 48 hrs by MTT assay; assay type: functional, cell-based; settings: MCF7, 48 h
MGC-803 [28] = test: Cell cycle arrest in human MGC803 cells assessed as accumulation at G2/M phase at 3 ug/ml after 48 hrs in presence of N-acetyl cysteine by propidium iodide staining-based flow cytometric method (reference value: 17.2 +/- 1.35%); assay type: functional
MGC-803 [29] = test: Induction of apoptosis in human MGC803 cells assessed as viable cells at 3 ug/ml in presence of N-acetyl cysteine by annexin V-FITC/propidium iodide staining-based flow cytometric method (reference value: 97.6%); assay type: functional; settings: read-out: Activity
MGC-803 [30] = test: Induction of apoptosis in human MGC803 cells assessed as early apoptotic cells at 3 ug/ml by annexin V-FITC/propidium iodide staining-based flow cytometric method (reference value: 1.3%); assay type: functional

SMILES: C=C1C(=O)[C@]23[C@H](O)[C@H]1C[C@H](O)[C@H]2[C@]12CCCC(C)(C)[C@H]1C[C@H]3O[C@@H]2OCCc1cn(Cc2ccc(Cl)cc2)nn1
- Activity (MGC-803 [1]): 0.3%
- Activity (MGC-803 [2]): Active
- Activity (MGC-803 [3]): 29.6%
- Activity (MGC-803 [4]): Active
- Activity (MGC-803 [5]): 40.3%
- Activity (MGC-803 [6]): Dose-dependent effect
- Activity (MGC-803 [7]): Dose-dependent effect
- Activity (MGC-803 [8]): 7.8%
- IC50 (EC9706): 5.04 µM
- Activity (MGC-803 [9]): 1.3%
- Activity (MGC-803 [10]): 26.7%
- viability at 1.5 µg/mL (MGC-803 [11]): 91%
- Activity (MGC-803 [12]): 0.1%
- Activity (MGC-803 [13]): Active
- Activity (MGC-803 [14]): Active
- Activity (MGC-803 [15]): 55.4%
- IC50 (SMMC-7721): 4.44 µM
- Activity (MGC-803 [16]): inactive
- inhibition (INH) (MGC-803 [17]): 90%
- Activity (MGC-803 [18]): 30.5%
- Activity (MGC-803 [19]): 4.2%
- Activity (MGC-803 [20]): 24.8%
- IC50 (PC-3): 4.02 µM
- Activity (MGC-803 [21]): 46.3%
- Activity (MGC-803 [22]): 16.1%
- IC50 (GES1): 28.7 µM
- Activity (MGC-803 [23]): Dose-dependent effect
- Activity (MGC-803 [24]): 4.6%
- Activity (MGC-803 [25]): Active
- Activity (MGC-803 [26]): 50.4%
- Activity (MGC-803 [27]): inactive
- IC50 (MCF7): 4.76 µM
- Activity (MGC-803 [28]): 14.8%
- viability at 3 µg/mL (MGC-803 [29]): 94%
- Activity (MGC-803 [30]): 60.3%
